Publication PMC6956804, “Potent antibacterial activity of MSI-1 derived from the magainin 2 peptide against drug-resistant bacteria” (Theranostics, 2020)
≈ marks a conversion by molar mass, not a printed value. Where two headings read alike, the source gives them in different places. Peptide text beside a SMILES is read from it.

Experiments:
trypsin = assay: in vitro; settings: pH 8.2
From the text: (§3) Aliquots of the mixture were extracted periodically and diluted with water/acetonitrile (3:2, v:v) containing 2% TFA for HPLC detection or for antibacterial activity assay [18].

[1] = system: penicillin-resistant E. coli; assay: Bacteria growth curve and viability at sub-MICs; assay type: cell-based
Experimental: E. coli were mixed with sub-MICs MSI-1 and OD600 value was recorded every 2 h throughout 26 h of coincubation. In addition, bacteria were suspended with nutrient broth containing MSI-1 and subjected to routine MTT assay after 24 h incubation.

Helicobacterpylori SS1 = assay type: cell-based; settings: 4 h
Experimental: Bacterial strains were purchased from the American Type Culture Collection (ATCC). All clinical strains were isolated from human clinical specimens by the Medical Laboratory Center of Zhongda Hospital (Nanjing, Jiangsu, China). Ndm-1, tem-1, ctx-m-1, shv-1 -carrying bacteria were constructed as previously described. The recombinant bacteria carrying drug-resistant genes were prepared in LB nutrient and induced by IPTG (1 mM) for 4 h before text. Other bacterial strains were respectively prepared in MHB and Columbia Blood Agar Base.
(§1) A standard micro-broth serial dilution assay was used to measure MIC of peptides. MIC was obtained by a microplate reader at 600 nm. MBC was determined as previously described.

G- and G+ bacteria = assay: Antimicrobial activity, summary over the strains; assay type: cell-based; settings: MIC expressed in μM, compared with IC50 on eukaryotic cells
Experimental: as §1

[2] = system: penicillin resistant-E. coli isolates; assay: Acute systemic E. coli infection in mice; assay type: in vivo, BALB/c mice; settings: for survival rate enhanced compared with the model group: doses 10, 5 and 2.5 mg/kg
Experimental: BALB/c mice (5-6 weeks) were purchased from the Laboratory Animal Center of Yangzhou University (Yangzhou, Jiangsu, China) and intraperitoneally (ip) injected with 500 μl (5× 10^8 CFU/ml) of penicillin resistant-E. coli isolates. Mice in MSI-1 treated groups (10, 5 and 2.5 mg/kg, n=16/group) and polymyxin treated group (5 mg/kg) were administered after 2 h post bacterial inoculation. After 12 h, six mice in each group were anesthetized with pentobarbital sodium (50 mg/kg body weight, i.p) and euthanized by cervical dislocation to count bacterial colonies in blood, lung, spleen, kidney and liver. Lung homogenates were collected for Gram staining. Moreover, serum TNF-α and IL-6 were measured by ELISA kits. The procedure of H&E staining for mouse lung was adapted from a published report. The survival and weight of other mice were monitored daily up to 7 days.

[3] = system: Penicillin-resistant E. coli; assay: Local E. coli infection in scalded mouse model; assay type: in vivo, mice; settings: for subeschar colonies reduced to: topical once a day
Experimental: To further investigate whether MSI-1 could protect from bacterial infection of the skin, mice were anesthetized with pentobarbital sodium (50 mg/kg, i.p) and shaved on the dorsal surfaces. The depilated skin was secured with 2-cm-diameter plastic containers that filled up with boiling water at contact time 10 s. Afterwards, a full-thickness wound (2 cm in diameter) was cut on the burned skin of each mouse. Penicillin-resistant E. coli suspension (100 µl, 1× 10^10 CFU/ml) was slowly inoculated over wound with a pipette tip, and a gentle stream of air was aimed over the inoculation site until skin appeared wet but absent of any standing volume from the inoculum suspension. Two hours later, vehicle (3% CMC-Na), MSI-1 or polymyxin, which was suspended in sterile CMC-Na (3%) in PBS at concentration of 10, 5, 2.5 mg/ml (MSI-1) or 5 mg/ml (polymyxin), was inoculated on the same area with a pipette tip, 1 ml/kg, once a day (n=15 per group). Mice were fed in cages individually to avoid cross infection and were treated daily for 7 consecutive days. At 3rd and 7th days, cutaneous wound healing and bacteria counts in skin lesion were measured. Moreover, 12 h after the last treatment, blood samples were collected from the retro-orbital venous plexus under anesthesia (pentobarbital sodium, 50 mg/kg). Finally, all animals were euthanized by cervical dislocation to collect the lung samples for counting live bacteria. The contents of TNF-α and IL-6 in skin homogenates and serum were measured by ELISA. Skin lesion was fixed by 4% paraformaldehyde for H&E staining. The expression levels of EGF and VEGF in skin lesion were examined by immunohistochemistry. In addition, the wound scratch assay was also performed on HaCaT cells to further test whether MSI-1 improved wound healing by promoting keratinocyte migration.

[4] = 20% fresh mouse serum, turbidimetry
From the text: At indicated time points, samples were denatured with equal volumes of 6 M urea and subjected to HPLC analysis or antibacterial activity evaluation.

pepsin = pepsin (Sus scrofa, UniProt P00791); settings: peptide:protease 300:1, 0.1 M NH4HCO3 pH 8.2, room temperature, HPLC; peak time shifted from 6.187 to 6.792 min (0.5 h)
From the text: as §3

[5] = system: P. aeruginosa (penicillin resistant, levofloxacin sensitive); assay: Resistance study, serial passages; assay type: cell-based; settings: serial passages at 1/4× MIC; ratio of MIC to that of first-time exposure
Experimental: (§2) P. aeruginosa and E. coli, which were penicillin resistant but levofloxacin sensitive strains, were exposed to MSI-1, polymyxin and levofloxacin for MIC determination. Resistance study was performed as described previously.

[6] = system: E. coli (penicillin resistant, levofloxacin sensitive); assay: Resistance study, serial passages; assay type: cell-based; settings: serial passages at 1/4× MIC; ratio of MIC to that of first-time exposure
Experimental: as §2

pepsin, sequence (P00791 60-385): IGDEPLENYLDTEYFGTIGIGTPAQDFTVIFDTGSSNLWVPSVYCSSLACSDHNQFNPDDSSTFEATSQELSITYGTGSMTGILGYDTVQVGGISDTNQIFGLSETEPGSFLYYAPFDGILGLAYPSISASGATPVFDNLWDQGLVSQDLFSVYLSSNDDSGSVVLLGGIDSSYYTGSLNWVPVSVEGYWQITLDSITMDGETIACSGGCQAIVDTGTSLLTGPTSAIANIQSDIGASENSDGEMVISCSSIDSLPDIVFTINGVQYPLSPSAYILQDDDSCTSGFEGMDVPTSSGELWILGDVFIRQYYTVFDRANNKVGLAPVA

CC[C@H](C)[C@H](NC(=O)CN)C(=O)N[C@@H](Cc1c[nH]c2ccccc12)C(=O)N[C@@H](CCCCN)C(=O)N[C@@H](Cc1ccccc1)C(=O)N[C@@H](CC(C)C)C(=O)N[C@@H](CCCCN)C(=O)N[C@@H](CCCCN)C(=O)N[C@@H](C)C(=O)N[C@@H](CCCCN)C(=O)N[C@@H](CCCCN)C(=O)N[C@@H](Cc1ccccc1)C(=O)N[C@@H](Cc1c[nH]c2ccccc12)C(=O)N[C@@H](CCCCN)C(N)=O [MSI-1] (H-GIWKFLKKAKKFWK-NH2)
remaining at 0.5 h (trypsin): < 10% | growth pattern of bacteria ([1]; 1/4 and 1/8 MIC, OD600 over 26 h): not significantly altered | cell viability vs control ([1]; sub-MICs, MTT, within 26 h, p>0.05): no significant difference | MBC (Helicobacterpylori SS1): 64 µg/mL (≈ 35.4 µM) | MIC (Helicobacterpylori SS1): 32 µg/mL (≈ 17.7 µM) | effective antimicrobial concentration in vitro (G- and G+ bacteria): 4.4 to 8.8 µM | reduction in CFU (blood and organs) ([2]; 10 mg/kg, 12 h): approximately 2 log unit | decreased rates of serum IL-6 and TNF-α ([2]; 10 mg/kg, 12 h post-infection, ELISA): 70%~80% | body weight ([2]; 7 days, polymyxin 5 mg/kg): marked weight maintenance effect | survival rate enhanced compared with the model group ([2]; first of three values, given 2 h post inoculation, 7 days): 80% | survival rate enhanced compared with the model group ([2]; second of three values, 7 days): 50% | survival rate enhanced compared with the model group ([2]; third of three values, 7 days): 30% | TNF-α and IL-6 in skin lesion homogenate ([3]; 10 mg/kg, 7th day, ELISA): strongly reduced | subeschar colonies reduced to ([3]; 10 mg/kg, after 3 days): 38.6% | subeschar colonies reduced to ([3]; 10 mg/kg, after 7 days): 49% | wound closure ([3]; 3rd and 7th days, especially at 10 mg/kg): significantly improved wound closure | bacterial colonies in the lung and blood ([3]; 7th day, MSI-1 5 and 10 mg/kg, polymyxin B, p<0.01 vs the model group): obviously decreased | expression of EGF and VEGF in the burned and infected skin ([3]; immunohistochemistry): no obvious effect | inhibition rate against bacteria after serum incubation ([4]; 0.5 h): 76.8% | inhibition rate against bacteria after serum incubation ([4]; 2 h): 46.9% | stability in pepsin solution (pepsin): some peptide hydrolysates might be produced | relative MIC after 15 subcultures [5]: remained stable | relative MIC after 15 subcultures [6]: remained stable
